Biological target: TACE (Homo sapiens (Human), UniProt P78536)
Test: TACE inhibition test (in vitro)
Assay type: biochemical
Settings: fluorescent synthetic substrate, 37° C., 1.5 hours
Description: The nucleotide sequence of TACE has been reported by Moss et al. (Moss, M. L. et al., Nature 1997, 385, 733-736). Accordingly, the cDNA of TACE was obtained according to the prescribed method from THP-1 cells or the like, and then incorporated the cDNA into an expression vector. Next, this vector was transformed into mammalian cells or insect cells, and TACE expression was obtained.
The TACE inhibition test was carried out by measuring TACE activity in the presence and the absence of the test substance using the thus-obtained TACE as an enzyme, and a fluorescent synthetic substrate Nma(N-methylanthranilic acid)-Leu-Ala-Gln-Ala-Val-Arg-Ser-Ser-Lys(Dnp(dinitrophenyl))-D-Arg-NH2 (SEQ ID NO: 1) including the TACE-cleaved sequence of a membrane-bound TNF as a substrate. The TACE inhibition test method is shown below.
Namely, 90 μL of an enzyme solution prepared with an assay buffer A (50 mM tris-hydrochloric acid buffer (pH 7.5) including 200 mM sodium chloride, 5 mM calcium chloride, 10 μM zinc sulfate, and 2 mg/mL bovine serum albumin) and 90 μL of a fluorescent synthetic substrate prepared with an assay buffer B (50 mM tris-hydrochloric acid buffer (pH 7.5) including 200 mM sodium chloride, 5 mM calcium chloride, 10 μM zinc sulfate, and 0.05% PLURONIC F-68) were mixed together, and reacted at 37° C. for 1.5 hours. Enzyme activity was then determined by measuring with a fluorescence intensity meter (Labsystems, Fluoroskan Ascent) at an excitation wavelength of 355 nm and a measurement wavelength of 460 nm.
From the enzyme activity in the presence or the absence of the test substance, the inhibition rate was determined, and the 50% inhibitiory concentration (IC50) of the test substance was calculated.

TACE, sequence (P78536 215-824): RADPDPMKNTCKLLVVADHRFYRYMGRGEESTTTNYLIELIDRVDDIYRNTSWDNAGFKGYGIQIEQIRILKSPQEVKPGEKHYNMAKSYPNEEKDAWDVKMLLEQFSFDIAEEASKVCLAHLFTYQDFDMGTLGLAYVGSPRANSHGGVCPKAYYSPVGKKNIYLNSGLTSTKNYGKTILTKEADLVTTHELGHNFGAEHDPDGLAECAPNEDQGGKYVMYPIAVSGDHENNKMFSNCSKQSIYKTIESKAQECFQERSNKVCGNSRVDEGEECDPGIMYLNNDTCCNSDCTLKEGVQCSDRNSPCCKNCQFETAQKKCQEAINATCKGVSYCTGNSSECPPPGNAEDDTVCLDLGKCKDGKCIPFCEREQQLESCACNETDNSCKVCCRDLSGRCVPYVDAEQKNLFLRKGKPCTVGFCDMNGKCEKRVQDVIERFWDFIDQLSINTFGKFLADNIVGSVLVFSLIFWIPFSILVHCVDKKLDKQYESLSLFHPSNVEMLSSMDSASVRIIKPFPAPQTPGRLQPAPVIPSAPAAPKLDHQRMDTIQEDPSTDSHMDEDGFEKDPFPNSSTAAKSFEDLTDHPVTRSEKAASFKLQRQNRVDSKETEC

SMILES | IC50 [nM]
Cc1cccn(CC2(c3ccc(C(C)(C)C)cc3)NC(=O)NC2=O)c1=O (stereo not drawn) [Compound I-17, 5-[4-(tert-butyl)phenyl]-5-[(3-methyl-2-oxopyridin-1(2H)-yl)methyl]imidazolidine-2,4-dione] | < 100
COc1ccc(C2(Cn3cccc(C)c3=O)NC(=O)NC2=O)c(OC)c1 (stereo not drawn) [Compound I-18, 5-(2,4-dimethoxyphenyl)-5-[(3-methyl-2-oxopyridin-1(2H)-yl)methyl]imidazolidine-2,4-dione] | < 100
Cc1cccn(CC2(c3cccc(C(F)(F)F)c3)NC(=O)NC2=O)c1=O (stereo not drawn) [Compound I-19] | < 100
COc1ccc(OC)c(C2(Cn3cccc(C)c3=O)NC(=O)NC2=O)c1 (stereo not drawn) [Compound I-20, 5-(2,5-dimethoxyphenyl)-5-[(3-methyl-2-oxopyridin-1(2H)-yl)methyl]imidazolidine-2,4-dione] | < 100
COc1cc(F)ccc1C1(Cn2cccc(C)c2=O)NC(=O)NC1=O (stereo not drawn) [Compound I-21, 5-(4-fluoro-2-methoxyphenyl)-5-[(3-methyl-2-oxopyridin-1(2H)-yl)methyl]imidazolidine-2,4-dione] | < 100
Cc1cccn(CC2(c3ccc4occc4c3)NC(=O)NC2=O)c1=O (stereo not drawn) [Compound I-22, 5-(benzofuran-5-yl)-5-[(3-methyl-2-oxopyridin-1(2H)-yl)methyl]imidazolidine-2,4-dione] | < 100
Cc1cccn(CC2(c3ccc4sccc4c3)NC(=O)NC2=O)c1=O (stereo not drawn) [Compound I-23, 5-(benzo[b]thiophen-5-yl)-5-[(3-methyl-2-oxopyridin-1(2H)-yl)methyl]imidazolidine-2,4-dione] | < 100
COc1ccc(OC(F)(F)F)cc1C1(Cn2cccc(C)c2=O)NC(=O)NC1=O (stereo not drawn) [Compound I-24, 5-[2-methoxy-5-(trifluoromethoxy)phenyl]-5-[(3-methyl-2-oxopyridin-1(2H)-yl)methyl]imidazolidine-2,4-dione] | 100 to 1000
Cc1cccn(CC2(c3ccc(S(C)(=O)=O)cc3)NC(=O)NC2=O)c1=O (stereo not drawn) [Compound I-25, 5-[(3-methyl-2-oxopyridin-1(2H)-yl)methyl]-5-[4-(methylsulfonyl)phenyl]imidazolidine-2,4-dione] | < 100
Cc1cccn(CC2(c3ccc4c(c3)CCCO4)NC(=O)NC2=O)c1=O (stereo not drawn) [Compound I-26, 5-(chroman-6-yl)-5-[(3-methyl-2-oxopyridin-1(2H)-yl)methyl]imidazolidine-2,4-dione] | < 100
Cc1cccn(CC2(c3cccc(F)c3)NC(=O)NC2=O)c1=O (stereo not drawn) [Compound I-28, 5-(3-fluorophenyl)-5-[(3-methyl-2-oxopyridin-1(2H)-yl)methyl]imidazolidine-2,4-dione] | < 100
Cc1cccn(CC2(c3cc(F)c(F)cc3F)NC(=O)NC2=O)c1=O (stereo not drawn) [Compound I-29, 5-[(3-methyl-2-oxopyridin-1(2H)-yl)methyl]-5-(2,4,5-trifluorophenyl)imidazolidine-2,4-dione] | < 100
Cc1cc(C2(Cn3cccc(C)c3=O)NC(=O)NC2=O)ccc1F (stereo not drawn) [Compound I-30, 5-(4-fluoro-3-methylphenyl)-5-[(3-methyl-2-oxopyridin-1(2H)-yl)methyl]imidazolidine-2,4-dione] | < 100
Cc1cccn(CC2(c3ccc(-c4ccncc4)cc3)NC(=O)NC2=O)c1=O (stereo not drawn) [Compound I-31, 5-[(3-methyl-2-oxopyridin-1(2H)-yl)methyl]-5-[4-(pyridin-4-yl)phenyl]imidazolidine-2,4-dione] | < 100
Cc1cccn(CC2(c3ccc(-c4cccnc4)cc3)NC(=O)NC2=O)c1=O (stereo not drawn) [Compound I-32, 5-[(3-methyl-2-oxopyridin-1(2H)-yl)methyl]-5-[4-(pyridin-3-yl)phenyl]imidazolidine-2,4-dione] | < 100
Cc1cccn(CC2(c3ccc(C#CC(C)(C)C)cc3)NC(=O)NC2=O)c1=O (stereo not drawn) [Compound I-33, 5-[4-(3,3-dimethylbut-1-yn-1-yl)phenyl]-5-[(3-methyl-2-oxopyridin-1(2H)-yl)methyl]imidazolidine-2,4-dione] | < 100
Cc1ccc(Oc2ccc(C3(Cn4cccc(C)c4=O)NC(=O)NC3=O)cc2)cc1 (stereo not drawn) [Compound I-34, 5-[(3-methyl-2-oxopyridin-1(2H)-yl)methyl]-5-[4-(p-tolyloxy)phenyl]imidazolidine-2,4-dione] | < 100
Cc1ccccc1Oc1ccc(C2(Cn3cccc(C)c3=O)NC(=O)NC2=O)cc1 (stereo not drawn) [Compound I-35, 5-[(3-methyl-2-oxopyridin-1(2H)-yl)methyl]-5-[4-(o-tolyloxy)phenyl]imidazolidine-2,4-dione] | < 100
Cc1cc(C2(Cn3cccc(C)c3=O)NC(=O)NC2=O)ccc1OC1CCCC1 (stereo not drawn) [Compound I-39, 5-[4-(cyclopentyloxy)-3-methylphenyl]-5-[(3-methyl-2-oxopyridin-1(2H)-yl)methyl]imidazolidine-2,4-dione] | < 100
Cc1cccn(CC2(c3ccc(-c4nn[nH]n4)cc3)NC(=O)NC2=O)c1=O (stereo not drawn) [Compound I-42, 5-[4-(2H-tetrazol-5-yl)phenyl]-5-[(3-methyl-2-oxopyridin-1(2H)-yl)methyl]imidazolidine-2,4-dione] | < 100
C=Cc1ccc(C2(Cn3cccc(C)c3=O)NC(=O)NC2=O)cc1 (stereo not drawn) [Compound I-43, 5-[(3-methyl-2-oxopyridin-1(2H)-yl)methyl]-5-(4-vinylphenyl)imidazolidine-2,4-dione] | < 100
Cc1cccn(CC2(c3cc(F)c(F)c(F)c3)NC(=O)NC2=O)c1=O (stereo not drawn) [Compound I-44, 5-[(3-methyl-2-oxopyridin-1(2H)-yl)methyl]-5-(3,4,5-trifluorophenyl)imidazolidine-2,4-dione] | < 100
CCCc1ccc(C2(Cn3cccc(C)c3=O)NC(=O)NC2=O)cc1 (stereo not drawn) [Compound I-45, 5-[(3-methyl-2-oxopyridin-1(2H)-yl)methyl]-5-(4-propylphenyl)imidazolidine-2,4-dione] | < 100

More lines, now with the values ahead:

IC50 [nM] | SMILES
< 100 | COc1ccc(C2(Cn3cccc(C)c3=O)NC(=O)NC2=O)cc1 (stereo not drawn) [Compound I-2, 5-(4-methoxyphenyl)-5-[(3-methyl-2-oxopyridin-1(2H)-yl)methyl]imidazolidine-2,4-dione]
< 100 | Cc1cccn(CC2(c3ccc(C#N)cc3)NC(=O)NC2=O)c1=O (stereo not drawn) [Compound I-3, 4-{4-[(3-methyl-2-oxopyridin-1(2H)-yl)methyl]-2,5-dioxoimidazolidine-4-yl}benzonitrile]
< 100 | COc1cccc(C2(Cn3cccc(C)c3=O)NC(=O)NC2=O)c1 (stereo not drawn) [Compound I-4, 5-(3-methoxyphenyl)-5-[(3-methyl-2-oxopyridin-1(2H)-yl)methyl]imidazolidine-2,4-dione]
< 100 | Cc1cccn(CC2(c3ccsc3)NC(=O)NC2=O)c1=O (stereo not drawn) [Compound I-5, 5-[(3-methyl-2-oxopyridin-1(2H)-yl)methyl]-5-(thiophen-3-yl)imidazolidine-2,4-dione]
< 100 | Cc1cccn(CC2(c3cc4ccccc4o3)NC(=O)NC2=O)c1=O (stereo not drawn) [Compound I-6, 5-(benzofuran-2-yl)-5-[(3-methyl-2-oxopyridin-1(2H)-yl)methyl]imidazolidine-2,4-dione]
< 100 | Cc1cccn(CC2(c3ccccn3)NC(=O)NC2=O)c1=O (stereo not drawn) [Compound I-7, 5-[(3-methyl-2-oxopyridin-1(2H)-yl)methyl]-5-(pyridin-2-yl)imidazolidine-2,4-dione]
< 100 | Cc1cccn(CC2(c3cccnc3)NC(=O)NC2=O)c1=O (stereo not drawn) [Compound I-8, 5-[(3-methyl-2-oxopyridin-1(2H)-yl)methyl]-5-(pyridin-3-yl)imidazolidine-2,4-dione]
< 100 | Cc1cccn(CC2(c3ccc(Br)cc3)NC(=O)NC2=O)c1=O (stereo not drawn) [Compound I-11, 5-(4-bromophenyl)-5-[(3-methyl-2-oxopyridin-1(2H)-yl)methyl]imidazolidine-2,4-dione]
< 100 | COc1cc(C2(Cn3cccc(C)c3=O)NC(=O)NC2=O)ccc1F (stereo not drawn) [Compound I-12, 5-(4-fluoro-3-methoxyphenyl)-5-[(3-methyl-2-oxopyridin-1(2H)-yl)methyl]imidazolidine-2,4-dione]
< 100 | COCOc1ccc(C2(Cn3cccc(C)c3=O)NC(=O)NC2=O)cc1 (stereo not drawn) [Compound I-13, 5-[4-(methoxymethoxy)phenyl]-5-[(3-methyl-2-oxopyridin-1(2H)-yl)methyl]imidazolidine-2,4-dione]
< 100 | COc1ccc(C2(Cn3cccc(C)c3=O)NC(=O)NC2=O)cc1F (stereo not drawn) [Compound I-14, 5-(3-fluoro-4-methoxyphenyl)-5-[(3-methyl-2-oxopyridin-1(2H)-yl)methyl]imidazolidine-2,4-dione]
< 100 | Cc1cccn(CC2(c3ccc(F)cc3)NC(=O)NC2=O)c1=O (stereo not drawn) [Compound I-15, 5-(4-fluorophenyl)-5-[(3-methyl-2-oxopyridin-1(2H)-yl)methyl]imidazolidine-2,4-dione]
< 100 | COc1ccc(C2(Cn3cccc(C)c3=O)NC(=O)NC2=O)cc1OC (stereo not drawn) [Compound I-16, 5-(3,4-dimethoxyphenyl)-5-[(3-methyl-2-oxopyridin-1(2H)-yl)methyl]imidazolidine-2,4-dione]

From patent US10000476B2, “Pyridone derivative, pharmaceutical containing the same and methods of use thereof” (KAKEN PHARMACEUTICAL CO., LTD., priority 2011, dated 2018)
